# According to US10913781B2, “Pepducin design and use” (Tufts Medical Center, Inc., priority 2011, dated 2021):
# Peptide text beside a SMILES is read from it. * marks the point of attachment. Palmitoyl = CCCCCCCCCCCCCCCC(=O)*
# Columns and labels:
# PAR1 [1] = target: T1, PAR1 (Homo sapiens, UniProt P25116); assay: Human platelet Ca2+ flux stimulated with SFLLRN; format: cell-based; set-up: endogenous in cells; host or cells: A549, HOP62, H1299, H522, H226, HOP92 lung carcinoma lines; conditions: human platelets
# T1 sequence (P25116 22-425): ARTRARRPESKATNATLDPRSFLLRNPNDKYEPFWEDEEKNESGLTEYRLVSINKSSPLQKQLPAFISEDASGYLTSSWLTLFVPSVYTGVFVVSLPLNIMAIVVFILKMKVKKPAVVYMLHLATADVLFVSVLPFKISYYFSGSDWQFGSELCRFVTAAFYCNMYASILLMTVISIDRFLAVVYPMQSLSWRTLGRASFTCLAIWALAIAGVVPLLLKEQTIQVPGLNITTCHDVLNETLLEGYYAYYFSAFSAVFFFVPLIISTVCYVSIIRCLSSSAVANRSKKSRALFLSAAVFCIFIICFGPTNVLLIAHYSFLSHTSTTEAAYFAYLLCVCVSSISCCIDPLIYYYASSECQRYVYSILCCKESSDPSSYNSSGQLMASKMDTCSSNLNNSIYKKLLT
# From the text: FIG. 8 illustrates data that show membrane-tethered PAR1-i3 and i1 pepducins block Ca^2+ flux and migration. (A): Model of PAR1 based on the […] structure of rhodopsin from Swift et al., 2006. Protease cleaved receptor results in generation of a new tethered ligand. The topologic arrangement of the […] to i4 loops and G proteins are illustrated. Schematic diagram of palmitoylated PAR1 i3 and i1 pepducins and their amino acid sequence composition are shown. (B): Effect of PAR1 pepducins on human platelets Ca^2+ flux. Platelets were preincubated with indicated concentrations of pepducins and stimulated with SFLLRN. Effect of blockade is expressed as the percentage of full Ca^2+ signal generated with SFLLRN in the absence of inhibitors. (C): Migration of A549 cells toward 0.3 nmol/L thrombin or 10 μmol/L […] in the presence or absence of 3 μmol/L P1pal-7, P1pal-10S, or P1pal-i1-11 after 18 hours. […] Cell migration is expressed as fold migration of ligand-mediated migration divided by basal migration.
# First, it had been previously shown that PAR1 strongly couples to Gq in human platelets as assessed by Ca^++ signaling. In order to determine effect of i1 and i3 pepducins on PAR1 mediated Gq-PLCβ-lnsP3 signaling, human platelets were pretreated with PAR1 pepducins and stimulated with SFLLRN, before the rate of Ca^++ flux was measured.
# PAR2 = PAR2 (Mus musculus, UniProt P55086); assay: SLIGRL-induced mouse paw edema; format: in vivo; set-up: from tissue; host or cells: living C57BL/6 mice, hindpaw; conditions: WT C57BL/6 mice; 10 mg/kg s.c.
# Sequence of PAR2 (P55086 26-399): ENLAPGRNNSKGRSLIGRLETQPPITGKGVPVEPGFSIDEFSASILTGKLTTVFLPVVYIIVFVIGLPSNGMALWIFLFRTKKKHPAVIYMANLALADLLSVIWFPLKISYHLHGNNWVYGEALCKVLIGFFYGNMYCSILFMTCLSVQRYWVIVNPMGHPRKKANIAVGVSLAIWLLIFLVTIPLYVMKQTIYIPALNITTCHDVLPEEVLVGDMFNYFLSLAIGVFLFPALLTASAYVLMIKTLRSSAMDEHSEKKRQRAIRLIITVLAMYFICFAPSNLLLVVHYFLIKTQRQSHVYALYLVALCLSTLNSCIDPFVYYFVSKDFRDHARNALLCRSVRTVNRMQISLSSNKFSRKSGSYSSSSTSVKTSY
# Method: (A) λ-carrageenan/kaolin or (B) the PAR2 specific agonist SLIGRL was administered by intraplantar injection to the left hindpaw of C57BL/6 wild-type or PAR2^−/− mice that were treated with subcutaneous (s.c.) injection of 10 mg/kg of P2pal-18S or vehicle. Paw area was measured and reported as fold-increase relative to baseline paw area. (C) Histology of representative H&E-stained footpads 7 h after λ-carrageenan/kaolin injection and quantification of the infiltrating inflammatory cells at 40× magnification. […]
# To evaluate the in vivo efficacy and specificity of P2pal-18S, the ability of the pepducins of the present invention was tested to protect against inflammatory hindlimb paw edema in wild-type (WT) and PAR2-deficient mouse strains (Damiano B P, et al. (1999) J Pharmacol Exp Ther 288: 671-78.) Acute inflammatory edema was induced by an intraplantar injection of λ-carrageenan and kaolin, irritants which cause a massive leukocytosis and hyperemic response, which leads to localized swelling. PAR2-dependent activity of an embodiment of the present invention, polypeptide P2pal-18S, was directly assessed by quantifying its inhibitory effects against the PAR2-specific agonist SLIGRL when injected into the hind footpad of WT C57BL/6 mice. […]
# PAR1 [2] = target: T1, PAR1; assay: Ligand-dependent endocytosis of PAR1; format: cell-based
# PAR1 [3] = target: T1, PAR1; assay: [3H]-InsP formation in COS7 cells transfected with PAR1; format: cell-based; set-up: expressed in transfected cells; host or cells: COS7; conditions: 1 μM TFLLRN, 30 min
# Method: (A) PAR2 antagonist pepducins P2pal-18S and P2pal-14GQ inhibit calcium flux induced by PAR2 (SLIGRL) (SEQ ID NO:4) but not PAR1 (TFLLRN) (SEQ ID NO:2) agonists. SW620 cells were stably transfected with PAR1 and pretreated for 1 min with various concentrations of P2pal-18S or P2pal-14GQ and then stimulated with 30 μM PAR agonist. […] Cells were stimulated with 1 μM TFLLRN (SEQ ID NO:2), 1 μM SLIGRL (SEQ ID NO:4) or 100 μM AYPGKF (SEQ ID NO:5) and [^3H]-InsP formation measured over 30 min. (C) SW620 cells were treated with the indicated concentrations of P2pal-18S or P2pal-14GQ in the upper well of an 8-μm pore Boyden chamber and allowed to migrate for 18 h towards 10 μM of the PAR2 specific agonist SLIGRL in the lower chamber. The migration to RPMI/0.1% FBS represents random migration. (D) Migration of HEK cells transiently transfected with PAR2 (wild-type, WT), or PAR2-R36A/PAR2-RQ toward chemotactic gradients of 30 nM trypsin in the absence or presence of the indicated concentration of P2pal-18S for 18 h in a transwell apparatus ([…]). Data (n=2-4) are mean±SEM. *, P<0.05 and **, P<0.005.
SMILES,Extent of inhibition of calcium mobilization (PAR1 [1]),Decrease in SLIGRL-induced edema (PAR2),Inhibition of ligand-dependent endocytosis of PAR1 (PAR1 [2]),Inhibition of InsP signaling from PAR1 (PAR1 [3])
CCCCCCCCCCCCCCCC(=O)N[C@H](C(=O)N[C@@H](CC(C)C)C(=O)N[C@@H](CCCCN)C(=O)N[C@@H](CCSC)C(=O)N[C@@H](CCCCN)C(=O)N[C@H](C(=O)N[C@@H](CCCCN)C(=O)N[C@@H](CCCCN)C(=O)N1CCC[C@H]1C(=O)N[C@@H](C)C(=O)N[C@H](C(N)=O)C(C)C)C(C)C)[C@@H](C)CC [P1pal-i1-11] (Palmitoyl-ILKMKVKKPAV-NH2),less effective in inhibiting the Gq mediated calcium signal,,,
CCCCCCCCCCCCCCCC(=O)N[C@@H](CCCNC(=N)N)C(=O)N[C@@H](CO)C(=O)N[C@@H](CO)C(=O)N[C@@H](C)C(=O)N[C@@H](CCSC)C(=O)N[C@@H](CC(=O)O)C(=O)N[C@@H](CCC(=O)O)C(=O)N[C@@H](CC(N)=O)C(=O)N[C@@H](CO)C(=O)N[C@@H](CCC(=O)O)C(=O)N[C@@H](CCCCN)C(=O)N[C@@H](CCCCN)C(=O)N[C@@H](CCCNC(=N)N)C(=O)N[C@@H](CCCCN)C(=O)N[C@@H](CO)C(=O)N[C@@H](C)C(=O)N[C@H](C(=O)N[C@@H](CCCCN)C(N)=O)[C@@H](C)CC [P2pal-18S],,85%,did not inhibit,do not inhibit
